Assay results taken from US20230181674A1, “ALLERGEN PROTECTION AGAINST URUSHIOLS” (BEIERSDORF AG, priority 2020, published 2023).

Assay: direct peptide reactivity assay (DPRA), in-chemico, unbound peptide detected with Ellman's reagent
Details: 24 h reaction; allergen 5 mM, peptide 0.5 mM; absorbance at 415 nm with DTNB; urushiol structures I-V; n = 3; FIG. 2
Experimental: The absorbance is plotted on the y-axis. The peptide-allergen reactions were realized according to a direct peptide reactivity assay. The test is referred to as the in-chemico method, that is to say no cells are used, but a chemical reaction is carried out.
The direct peptide reaction assay (DPRA) is an OECD-validated test method.
The native, still-unbound peptide is detected by reaction with Ellman’s reagent and corresponding absorbance measurement. The direct peptide reactivity assay (DPRA) is a chemical method for predicting epidermal protein binding. DPRA uses for example HPLC to measure the depletion of peptides in solution after exposure to test chemicals.
RFAACAA was selected as an example of a peptide of the invention.
In the DPRA method, the absorbance at 415 nm is determined as the measured variable.
The allergen concentration is in the investigations carried out a standard 5 mM and thus 10 times the concentration of the peptide used (0.5 mM).
The reaction courses shown were determined colorimetrically through the reaction of the peptide with Ellmann’s reagent in a photometer. In this reaction, DTNB ((5,5′-dithiobis-2-nitrobenzoic acid, Ellmann’s reagent) is cleaved and attached to the SH residue of the amino acid cysteine of the peptides of the invention (RFAACAA).
The SH radical is at the same time the reactive binding site of the peptide with the allergens. […]

Substance	reactivity of peptides with urushiol allergens (fall in peptide, protective activity)
acetyl-arginine-phenylalanine-alanine-alanine-cysteine-alanine-alanine [Ac-RFAACAA]	very high reactivity
RFAACAA [Arg Phe Ala Ala Cys Ala Ala]	very high reactivity
